Test results taken from ChEMBL document CHEMBL1148206, “Novel sesquiterpenoid matrix metalloproteinase-3 inhibitors from an acid mine waste extremophile” (J Nat Prod, 2004).
Converted amounts (≈) assume the structure as drawn.

Columns and labels:
[1] = molecular target: Stromelysin-1 (Homo sapiens) (UniProt P08254); assay: Inhibition of MMP3
Caspase-1 (Homo sapiens) = molecular target: T1, Caspase-1 (Homo sapiens) (UniProt P29466); assay: Inhibition of caspase 1
T1 sequence (whole entry): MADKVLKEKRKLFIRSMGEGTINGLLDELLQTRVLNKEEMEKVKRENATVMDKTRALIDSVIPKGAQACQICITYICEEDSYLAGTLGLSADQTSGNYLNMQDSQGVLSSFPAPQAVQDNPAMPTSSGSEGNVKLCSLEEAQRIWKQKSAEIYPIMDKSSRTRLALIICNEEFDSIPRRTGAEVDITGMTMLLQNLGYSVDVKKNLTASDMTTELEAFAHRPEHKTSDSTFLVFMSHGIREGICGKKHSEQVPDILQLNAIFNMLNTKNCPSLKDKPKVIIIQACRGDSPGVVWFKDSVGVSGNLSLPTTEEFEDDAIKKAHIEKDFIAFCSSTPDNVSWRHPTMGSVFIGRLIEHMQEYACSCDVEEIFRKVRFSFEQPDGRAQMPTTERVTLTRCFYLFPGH

Sequence of Stromelysin-1 (Homo sapiens) (P08254 100-477 limits assumed): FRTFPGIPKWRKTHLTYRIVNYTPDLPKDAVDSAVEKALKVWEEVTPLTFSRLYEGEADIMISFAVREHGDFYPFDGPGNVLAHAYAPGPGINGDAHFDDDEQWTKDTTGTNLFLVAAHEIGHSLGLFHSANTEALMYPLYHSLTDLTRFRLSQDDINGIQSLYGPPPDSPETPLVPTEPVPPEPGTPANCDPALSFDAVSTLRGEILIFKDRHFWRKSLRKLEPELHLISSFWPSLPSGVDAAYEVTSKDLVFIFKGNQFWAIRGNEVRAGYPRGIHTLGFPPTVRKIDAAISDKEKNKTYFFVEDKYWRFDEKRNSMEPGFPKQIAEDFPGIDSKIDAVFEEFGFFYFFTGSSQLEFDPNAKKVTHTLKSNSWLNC

Row | Structure (SMILES) | MIC50 [1] [µM] | MIC50 (Caspase-1 (Homo sapiens)) [µM]
1 | C=C(CCC=C(C)C)[C@H]1C[C@@H](O)[C@](C)(O)[C@@H](O)C1=O | 0.3 (≈ 0.0805 µg/mL) | 30 (≈ 8.05 µg/mL)
2 | CC(C)=CCC/C(C)=C1\C[C@@H](O)[C@](C)(O)[C@@H](O)C1=O | 0.3 (≈ 0.0805 µg/mL) | 30 (≈ 8.05 µg/mL)
3 | C=C(CCC=C(C)C)C1=C[C@@H](O)[C@](C)(O)[C@@H](O)C1=O | 0.3 (≈ 0.0799 µg/mL) | 30 (≈ 7.99 µg/mL)
